PubChem BioAssay AID463199 (Broad Institute, 2010)
Calls of active or inactive are those of the source.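 How the source made its calls: active means AC50, the dose giving half-maximal effect, exceeds a fixed cutoff for a compound that rescues yeast growth under heat; inactive means the rest, inconclusive results apart.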

tested on: S. cerevisiae Burl-1 ts mutant growth, BacTiter-Glo, 38.5C 24 h; experiment: growth induction of Burl-1 ts yeast mutant, dose response, counter-screen for SUMOylation pathway inhibitor project, whole organism, S. cerevisiae, luminescence (AID 463199)

SMILES | AC50
O=C(CSc1nc(-c2ccccc2)nc2ccc(F)cc12)Nc1cccc(C(=O)O)c1 | > 42 µM (inactive)
O=C(Cc1cccs1)Nc1nnc(-c2ccncc2)s1 | > 42 µM (inactive)
Cc1ccc(C(=O)NC(NC(=O)c2ccc(C)cc2)C(Cl)Cl)cc1 | > 42 µM (inactive)
CC(C)(C)NC(=O)C(c1cccs1)N(Cc1cccs1)C(=O)c1ccc(CN2CCOCC2)o1 (centres undefined) | > 42 µM (inactive)
Cc1ccc(C(=O)O)cc1N=Cc1cc(Br)cc(Br)c1O | > 42 µM (inactive)
O=C(Nc1ccccn1)c1ccc(CN(c2ccccc2)S(=O)(=O)c2ccccc2)cc1 | > 42 µM (inactive)
C[C@@]12C(=O)Nc3ccc(Br)cc3C(=O)N1[C@H]1c3ccccc3OC[C@@H]1[C@@H]2c1ccccc1 | > 42 µM (inactive)
CCN1C(=O)c2cccc3c(S(=O)(=O)Nc4ccc(OC)cc4OC)ccc1c23 | > 42 µM (inactive)
CCN1CCN(CC(=O)N2N=CCC2c2ccccc2)CC1 (centres undefined) | > 42 µM (inactive)
Cc1cccc(N=C2C(=O)Nc3c(Cl)cccc32)c1 | > 42 µM (inactive)
Cc1sc(NC(=O)CSC2=NCCS2)nc1-c1ccccc1 | > 42 µM (inactive)
O=C(c1ccc(-c2ccccc2)cc1)C1CCCN(Cc2ccncc2)C1 (centres undefined) | > 42 µM (inactive)
Cc1cc(NC(=O)/C=C/c2ccco2)ccc1NC(=O)c1ccccc1 | > 42 µM (inactive)
CC1(C(=O)Nc2cccc(-n3cnnn3)c2)Cc2ccccc2C(=O)O1 (centres undefined) | > 42 µM (inactive)
CCOc1ccccc1C(=O)NCc1ccc2c(c1)OCO2 | > 42 µM (inactive)
O=C(O)c1c(C(=O)O)c(-c2ccc(F)cc2)n2c1CCC2 | > 42 µM (inactive)
CCN1C(=O)N(c2ccc(Cl)cc2)C(C)=CC1(C)C | > 42 µM (inactive)
CCOC(=O)c1cnc2ccc(Cl)cc2c1N1CCN(C)CC1 | > 42 µM (inactive)
Cc1ccc(N(CC(=O)NCCc2ccc(Cl)cc2)S(=O)(=O)c2c(C)noc2C)cc1 | > 42 µM (inactive)
Cc1nc2ccc(S(=O)(=O)NC(CC(C)C)C(=O)O)cc2s1 (centres undefined) | > 42 µM (inactive)
CCCCn1c2nc3ccccc3nc2c2c(=O)n(CCC)cnc21 | > 42 µM (inactive)
Cc1ccc(S(=O)(=O)N2CCN(C(=O)CSc3nc(N)cc(=O)[nH]3)CC2)c(C)c1 | > 42 µM (inactive)
O=C(Nc1ccc(S(=O)(=O)NC2=NCCCCC2)cc1)c1ccc(C(F)(F)F)cc1 | > 42 µM (inactive)
COc1ccc(NC(=O)Nc2ccc(OC)cc2)cc1 | > 42 µM (inactive)
COc1cc2c(cc1OC)CN(S(=O)(=O)c1cccc(F)c1)CC2 | > 42 µM (inactive)

SMILES | AC50
O=C1CN(C(=O)COC(=O)c2ccccc2NCc2ccco2)c2ccccc2N1 | > 42 µM (inactive)
NC(=O)c1ccccc1NC(=O)c1ccc2c(c1)OCO2 | > 42 µM (inactive)
O=C(O)CCC(=O)N1N=C(c2c(-c3ccccc3)c3cc(Cl)ccc3[nH]c2=O)CC1c1ccco1 (centres undefined) | > 42 µM (inactive)
N#CC(CC(=O)c1ccc(F)cc1)c1ccc2c(c1)OCO2 (centres undefined) | > 42 µM (inactive)
CCn1c(SCC(=O)OC)nnc1-c1ccncc1 | > 42 µM (inactive)
O=C(CN1c2ccccc2Sc2ccccc21)N/N=C/c1ccc(Cl)cc1Cl | > 21 µM (inactive)
CCn1c(SCC(=O)NC2CCCCC2)nnc1C(C)NC(=O)c1ccccc1F (centres undefined) | > 42 µM (inactive)
Cc1nc(-c2ccncc2)sc1C(=O)Nc1ccc(Br)cc1 | > 42 µM (inactive)
O=C(c1ccc2c(=O)n(Cc3ccccc3Cl)c(=S)[nH]c2c1)N1CCOCC1 | > 42 µM (inactive)
[N-]=[N+]=NCCN1CCC(O)CCC1=O (centres undefined) | > 42 µM (inactive)
COc1ccc(OC(=O)c2ccc(Cl)cc2)c(C(C)=O)c1 | > 42 µM (inactive)
COc1ccc2c(c1)OC[C@H]1[C@H]2N2C(=O)c3cc(OC)c(OC)cc3NC(=O)[C@@]2(C)[C@H]1c1ccccc1 | > 42 µM (inactive)
COc1ccc(/C=C(\C#N)C(=O)c2cccn2C)cc1 | > 42 µM (inactive)
CCCCN(C(=O)C1=COCCO1)c1c(N)n(Cc2ccccc2)c(=O)[nH]c1=O | > 42 µM (inactive)
NNC(=O)c1[nH]c2ccccc2c1-c1ccccc1 | > 42 µM (inactive)
CCc1c(C)nc(N2CCN(Cc3ccccc3)CC2)[nH]c1=O | > 42 µM (inactive)
O=C(NCC1CCCO1)C1CC(c2ccc(Cl)c(Cl)c2)=NO1 (centres undefined) | > 42 µM (inactive)
O=C(C1CCCN(S(=O)(=O)c2cnc[nH]2)C1)N1CCN(c2ccc(Cl)cc2)CC1 (centres undefined) | > 42 µM (inactive)
O=C1COc2ccc(C(=O)COC(=O)c3ncc(Cl)c(Cl)c3Cl)cc2N1 | > 42 µM (inactive)
O=C(N/N=C/c1ccccc1)c1[nH]c2ccc(Br)cc2c1-c1ccccc1 | > 42 µM (inactive)
Cc1cc(C(=O)COc2cccc3cccnc23)c(C)n1C | > 42 µM (inactive)
COc1cc(CN2CCNC(=O)C2CC(=O)NCCc2ncccc2C)cc(OC)c1 (centres undefined) | > 42 µM (inactive)
COc1cccc(Nc2nc(C)nc3c2oc2ccccc23)c1 | > 42 µM (inactive)
O=C(NNC(=O)c1ccc(-n2cncn2)c([N+](=O)[O-])c1)c1ccc(Cl)cc1 | > 42 µM (inactive)
